Assay results: PMC7587383, “Pimarane Diterpenoids from the Seeds of Caesalpinia minax as PTP1B Inhibitors and Insulin Sensitizers” (Molecules, 2020)

Target: T1, Protein-tyrosine phosphatase 1B (PTP1B) (Homo sapiens, UniProt P18031)
T1 construct: gene PTPN1
T1 sequence (P18031 1-435): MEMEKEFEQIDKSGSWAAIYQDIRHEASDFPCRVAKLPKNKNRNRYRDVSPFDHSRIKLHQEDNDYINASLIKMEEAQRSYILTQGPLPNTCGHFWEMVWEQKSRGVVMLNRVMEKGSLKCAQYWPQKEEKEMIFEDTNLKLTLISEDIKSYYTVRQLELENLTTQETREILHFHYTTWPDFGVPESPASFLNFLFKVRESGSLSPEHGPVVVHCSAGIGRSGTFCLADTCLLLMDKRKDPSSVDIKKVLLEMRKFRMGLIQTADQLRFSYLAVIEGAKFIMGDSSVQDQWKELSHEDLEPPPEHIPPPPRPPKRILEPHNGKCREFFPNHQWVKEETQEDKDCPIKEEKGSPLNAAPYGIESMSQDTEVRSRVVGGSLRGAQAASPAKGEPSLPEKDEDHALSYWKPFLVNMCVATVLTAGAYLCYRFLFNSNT
Assay: pNPP dephosphorylation assay with human recombinant PTP1B; Lineweaver-Burk and Dixon plots
Format: biochemical

Ki: 13.7 ± 2.72 µM
SMILES: C=C[C@@]1(C)CCC2=C(C1)C(=O)C[C@H]1C(C)(C)C[C@H](O)C[C@]21C [compound 1, 2α-hydroxy-7-oxo-pimara-8(9),15-diene]
